For this experiment, the target named is T1, human EGF receptor (Homo sapiens, UniProt P00533).
T1 construct: expressed in transfected cells; host or cells: NIH3T3 clone C7 (EGFR/C7)
The experiment can be described thus: EGFR Whole Cell Kinase Assay (EGFR-3T3 assay). It is filed as cell-based. On the procedure:
Growth assays were carried out using human mammary epithelial SKBR3 (ATCC HTB30) cells (SKBR3 cells over-express HER2), SKOV3 (ATCC HTB77) human ovarian cancer cell line (SKOV3 cells also over-express HER2), A431 cells (A431 cells over-express EGFR) MCF7 human breast carcinoma cells, MCF7 cells overexpressing the HER2 kinase (MCF7-HER2), NIH3T3 cells, and NIH3T3 cells overexpressing the HER2 kinase (3T3-HER2.
EGFR Whole Cell Kinase Assay
EGFR kinase activity (EGFR-3T3 assay) in whole cells was measured as described below:
Coated plates are good for up to 10 days when stored at 4.sunburst.C.
B. On day of use, remove coating buffer and replace with blocking buffer (5% Carnation Instant NonFat Dry Milk in PBS). Incubate the plate, shaking, at room temperature (about 23.sunburst.C to 25.sunburst.C) for 30 minutes. Just prior to use, remove blocking buffer and wash plate 4 times with TBST buffer.
A. EGFR/C7 cell line (Honegger, et al., supra) can be used for this assay.
B. Choose dishes having 80-90% confluence for the experiment.
Trypsinize cells and stop reaction by adding 10% CS DMEM medium. Suspend cells in DMEM medium (10% CS DMEM medium) and centrifuge once at 1000 rpm, and once at room temperature for 5 minutes.
C. Resuspend cells in seeding medium (DMEM, 0.5% bovine serum), and count the cells using trypan blue. Viability above 90% is acceptable. Seed cells in DMEM medium (0.5% bovine serum) at a density of 10,000 cells per well, 100 μl per well, in a 96 well microtiter plate. Incubate seeded cells in 5% CO2 at 37.sunburst.C for about 40 hours.
A. Check seeded cells for contamination using an inverted microscope. Dilute drug stock (10 mg/ml in DMSO) 1:10 in DMEM medium, then transfer 5 μl to a test well for a final drug dilution of 1:200 and a final DMSO concentration of 1%.
Control wells receive DMSO alone. Incubate in 5% CO2 at 37° C. for one hour.
C. Prepare fresh HNTG sufficient for 100 μl per well; and place on ice.
Control wells receive DMEM alone. […]
K. The maximal phosphotyrosine signal is determined by subtracting the value of the negative controls from the positive controls.

The mark [1] stands for this setting: EGFR/C7 NIH3T3 cells, EGF stimulated, read-out: ELISA DATA: EGFR.

pIC50: −log10 of the molar value. Read-outs that look alike come from different tables or passages of the source.

T1 sequence (P00533 25-1210): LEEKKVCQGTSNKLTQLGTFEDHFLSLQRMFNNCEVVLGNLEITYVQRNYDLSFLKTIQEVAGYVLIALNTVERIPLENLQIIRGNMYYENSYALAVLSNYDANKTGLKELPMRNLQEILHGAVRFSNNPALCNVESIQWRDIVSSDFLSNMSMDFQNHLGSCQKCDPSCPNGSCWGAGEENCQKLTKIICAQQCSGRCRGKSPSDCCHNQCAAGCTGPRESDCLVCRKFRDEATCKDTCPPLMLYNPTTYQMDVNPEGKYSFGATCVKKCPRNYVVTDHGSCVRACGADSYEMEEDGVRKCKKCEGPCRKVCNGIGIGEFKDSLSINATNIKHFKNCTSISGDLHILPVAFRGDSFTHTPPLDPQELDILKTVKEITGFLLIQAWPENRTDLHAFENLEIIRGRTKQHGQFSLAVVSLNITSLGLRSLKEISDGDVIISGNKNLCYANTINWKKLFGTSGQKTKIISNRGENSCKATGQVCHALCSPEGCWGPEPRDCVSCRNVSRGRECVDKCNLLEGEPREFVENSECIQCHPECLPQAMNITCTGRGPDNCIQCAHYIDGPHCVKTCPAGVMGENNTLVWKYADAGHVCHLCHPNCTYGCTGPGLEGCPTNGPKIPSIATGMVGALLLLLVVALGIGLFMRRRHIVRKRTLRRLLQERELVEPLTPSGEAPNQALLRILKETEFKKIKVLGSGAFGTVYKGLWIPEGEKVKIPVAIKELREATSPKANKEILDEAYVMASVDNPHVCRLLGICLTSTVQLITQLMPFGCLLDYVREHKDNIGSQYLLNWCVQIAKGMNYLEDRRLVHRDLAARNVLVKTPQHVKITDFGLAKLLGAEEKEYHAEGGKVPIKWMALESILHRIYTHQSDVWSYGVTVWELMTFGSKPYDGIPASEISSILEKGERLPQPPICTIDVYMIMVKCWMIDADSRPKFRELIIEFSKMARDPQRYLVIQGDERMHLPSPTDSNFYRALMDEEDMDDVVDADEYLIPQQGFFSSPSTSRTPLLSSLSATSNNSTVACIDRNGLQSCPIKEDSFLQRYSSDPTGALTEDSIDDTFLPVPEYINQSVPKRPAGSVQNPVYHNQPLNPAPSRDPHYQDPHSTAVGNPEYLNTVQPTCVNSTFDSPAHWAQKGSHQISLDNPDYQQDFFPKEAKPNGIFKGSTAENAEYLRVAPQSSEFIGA

`O=C(Nc1ccc(SC(F)(F)F)cc1)Nc1ccc(Oc2ccc(Cl)cc2Cl)nc1` [Example Z3]: the pIC50 was 4.16.

Consider `N#Cc1ccc(NC(=S)Nc2ccc(S(=O)(=O)N3CCCCC3)cc2)cc1` [Example Z4, N-(4-Cyanophenyl)-N'-[4-[(piperid-1-yl)sulfonyl]phenyl]thiourea], for which the pIC50 under setting [1] is less than 4.00.

As to `CC(C)S(=O)(=O)c1csc(NC(=O)Nc2ccc(C(C)(C)C)cc2)c1Cl` [Example Z1, N-[3-Chloro-4-(isopropylsulfonyl)thien-2-yl]-N'-(4-t-butylphenyl)urea], the pIC50 under setting [1] is less than 4.00.

For the origin of these results see patent US5773459A, “Urea- and thiourea-type compounds” (Sugen, Inc., priority 1995, dated 1998).
